In patent US6630316B1, “Method for measurement of lymphocyte function” (priority 1996, dated 2003):

How the values were obtained:
Format in all cases: cell-based
[1] = tested on: T lymphocytes separated by CD4, CD69, or CD3; experiment: ATP response after PHA stimulation of T lymphocytes separated by CD4, CD69 or CD3; details: PHA (1%) for 24, 48, 72 or 96 hours; separation by CD3, CD4 or CD69
[2] = tested on: CD4 positive T lymphocytes; experiment: ATP (luciferin:luciferase) response of PBMC separated using CD4 antibody and goat anti-mouse paramagnetic beads; details: PHA 1 ug/ml, 24 hours, CD4 separation, unstimulated 8768
[3] = tested on: CD8 positive T lymphocytes
[4] = tested on: T lymphocytes (CD4) in whole blood; experiment: T cell response to mitogens in a whole blood sample (CD4 separation, ATP luminescence); details: whole blood diluted 1:5, incubated overnight at 37 C; PHA at 1%, IL-2 at 1000 U/ml; control 458,451

Substance: phytohemagglutinin [PHA]
- relative light units from stimulated cells versus unstimulated cells [1]: greater than those from the unstimulated cells
- Relative Light Units [2]: 38903 Relative Light Units
- stimulation index [3]: > 10
- Relative Light Units [4]: 5,836,682 Relative Light Units
